row,melting point [°C],Structure (SMILES)
1,263 to 265,Nc1ccc(N2CCSCC2)c(C(=O)O)c1
2,126 to 128,Cc1ccc(OCCCC(=O)Nc2ccc(C#N)cc2)cc1
3,51 to 53,O=C1C=CC(=O)N1c1ccccc1Sc1ccccc1
4,34 to 36,Cc1c(I)cccc1[N+](=O)[O-]
5,97 to 101,CN(C)CCCNC(=O)c1cccnc1Cl
6,103 to 105,COc1cc2c(cc1OC)NCC2
7,62 to 64,CCOc1cc(Br)c([N+](=O)[O-])cc1OCC
8,123 to 125,c1ccc(NC2CCCCC2)nc1
9,200 to 202,COc1cc(I)c(C(=O)O)cc1OC
10,47 to 49,COC(=O)C(=CN(C)C)C(C)=O
11,210 to 215,N#Cc1ccc(C(=O)O)nc1
12,88 to 90,Cc1cc(C)n(-c2cncc(Cl)n2)n1
13,228 to 230,O=C(O)c1cnn2c(-c3ccccc3)ccnc12
14,166 to 168,COc1ccc(C(=O)CC(C)(C)C(=O)O)cc1
15,161 to 163,CC(=O)Nc1cc(S(=O)(=O)Cl)ccc1F
16,114 to 116,Cc1nn(C)cc1CCC(=O)O
17,147 to 150,N#Cc1cc(C(=O)c2ccccc2O)cn(-c2ccccn2)c1=O
18,159 to 161,O=C(O)Cc1csc(-c2ccc(Cl)cc2Cl)n1
19,146 to 148,Cc1[nH]c(=O)sc1C
20,111 to 113,O=C1CCSc2c(F)ccc(F)c21
21,47 to 49,Nc1cccc(C#Cc2ccccc2)c1
22,62 to 64,Nc1cc(Cl)ccc1Sc1ccccc1
23,105 to 107,COc1ccc(S(=O)(=O)N2CCCCCC2)cc1NC(=O)CCl
24,189 to 191,O=c1[nH]c2cc(Br)cc(Cl)c2o1

row,melting point [°C],Structure (SMILES)
1,269 to 271,Nc1n[nH]c(C(=O)O)c1-c1ccccc1
2,55 to 57,CC1CC(=O)c2c(O)ccc(Cl)c21 (stereo unspecified)
3,129 to 131,O=C(O)C1Cc2cc(F)ccc2O1 (stereo unspecified)
4,113 to 115,O=C(Nc1ccccc1)C(Cl)C(=O)c1ccccc1 (stereo unspecified)
5,43 to 45,Nc1cc(CCCc2cccs2)no1
6,208 to 210,O=C1CCSc2ccccc2N1
7,128 to 130,O=[N+]([O-])c1ccc(S(=O)(=O)CCO)cc1
8,115 to 117,Cc1ccc2c(CC#N)c[nH]c2c1
9,104 to 106,CC(C)c1nnn[nH]1
10,46 to 48,Cc1cc(Br)cc(C=O)c1OC(F)F
11,176 to 178,CC(C)C1(C)NC(=O)NC1=O (stereo unspecified)
12,145 to 147,O=C(NCO)c1ccc(Cl)cc1
13,103 to 105,N#CCC(=O)N1CCSCC1
14,120 to 122,Nc1ccn(Cc2cccc3cccnc23)n1
15,244 to 246,O=C(O)c1cnc2scc(-c3ccccc3)n2c1=O
16,147 to 149,Nc1ncn(Cc2cccc(Br)c2)n1
17,120 to 123,OCCc1ccc(O)c(-n2nc3ccccc3n2)c1
18,216 to 218,CC(C)c1[nH]ncc1C(=O)O
19,81 to 83,CC(Cl)C(=O)N1CCSc2ccccc21 (stereo unspecified)
20,65 to 67,Cc1noc(-c2cccnc2Cl)n1
21,199 to 201,NC(=O)N1CC=C(c2c[nH]c3ccccc23)CC1
22,229 to 231,COC(=O)Nc1cccc(C(=O)O)c1
23,153 to 157,Cc1cc(C)c(NC(=O)CCl)c(C)c1
24,294 to 296,O=C(O)c1c2c(nc3ccccc13)C(=Cc1cccc(Cl)c1Cl)CCC2

row,melting point [°C],Structure (SMILES)
1,122 to 124,O=C(O)C1CCN(c2ccc3c(c2)OCCO3)C1=O (stereo unspecified)
2,135 to 137,CC(Sc1ncccn1)C(=O)O (stereo unspecified)
3,102 to 104,CC(=O)c1ccc(S(=O)(=O)CC(F)(F)F)cc1
4,82 to 84,COc1ccc(-c2ccncc2C=O)cc1
5,153 to 155,NC(=NO)c1ccc(Br)cc1
6,74 to 76,CC(C)(C)OC(=O)Nc1cccc(Cl)n1
7,221 to 223,O=C(O)C1CCCN(S(=O)(=O)c2ccc([N+](=O)[O-])cc2)C1 (stereo unspecified)
8,55 to 57,CC(O)(CN)c1cccs1 (stereo unspecified)
9,134 to 136,CC(C)(C)OC(=O)N1CCc2ccc(O)cc2C1
10,142 to 144,COc1cc(N)c(C(N)=O)cc1OC
11,159 to 161,Fc1cc2nc[nH]c2cc1F
12,87 to 89,OCc1nc(-c2ccccc2)cs1
13,151 to 153,CNc1snc(C)c1C(=O)O
14,197 to 199,Cc1nc(COc2ccc(C(=O)O)cc2)no1
15,180 to 182,O=C(O)c1ccc(F)c(S(=O)(=O)N2CCC2)c1
16,65 to 67,CNCc1ccc(C(=O)NC)o1
17,98 to 100,NCC(O)COc1ccc(C(F)(F)F)cc1 (stereo unspecified)
18,202 to 204,O=C(O)CN1CCC(CO)CC1
19,167 to 169,Cc1n[nH]c(-c2ccccn2)n1
20,35 to 37,CC(C)c1noc(-c2ccnc(Cl)c2)n1
21,188 to 190,COC(=O)c1ccc(=O)[nH]n1
22,44 to 46,O=C(O)C1CC2CCC1O2 (stereo unspecified)
23,139 to 141,COc1ccc(Br)c(C(=O)O)c1N
24,187 to 189,CC1C(=O)NC(=O)N1c1ccc(F)cc1 (stereo unspecified)

row,melting point [°C],Structure (SMILES)
1,136 to 138,NCCCNC(=O)c1cccc(O)c1
2,168 to 170,Nc1ncc(-c2cccc(F)c2)s1
3,109 to 112,NNC(=O)COc1ccccc1F
4,263 to 265,O=C(O)c1ccc(NC(=O)c2ccccn2)cc1
5,209 to 211,Nc1ccc(-c2cn3c(n2)CCCC3)cc1
6,75 to 77,Nc1ccccc1CN1CCc2ccccc21
7,79 to 81,Cc1cnn(-c2ccccc2)c1N
8,79 to 83,Cc1ccccc1-c1noc(CC#N)n1
9,154 to 156,Fc1ccc(-n2ncc3c(Cl)ncnc32)cc1
10,149 to 151,O=[N+]([O-])c1ccc(Cl)c(S(=O)(=O)N2CCOCC2)c1
11,244 to 246,CCc1cc(=O)n2c([nH]c3ccccc32)c1C#N
12,75 to 77,CCOC(=O)C(NC(=O)C(C)C)C(=O)OCC
13,190 to 192,O=C1COc2ccc(C(=O)CBr)cc2N1
14,144 to 146,CCCCCn1nc(C(=O)O)c2ccccc2c1=O
15,118 to 120,Cc1cc(Cl)c([N+](=O)[O-])cc1N
16,46 to 48,COc1cccc(-c2ccc(CN)cc2)c1
17,256 to 258,O=C(O)Cn1c(-c2cscn2)nc2ccccc21
18,156 to 158,O=C1C=CC=NC1=C(O)Nc1cnccn1
19,143 to 145,COc1cccc(-c2c[nH]cc2C(=O)O)c1
20,143 to 145,O=C(c1ccc[nH]1)N1CCCNCC1
21,169 to 171,O=C(O)c1cc(Br)ncc1[N+](=O)[O-]
22,84 to 86,O=C(O)C1CCCc2ccccc21 (stereo unspecified)
23,154 to 156,O=C1CCCc2cc(C(=O)CCl)ccc2N1
24,92 to 94,NCc1ccnc(N)c1

row,melting point [°C],Structure (SMILES)
1,92 to 94,COc1cc(C(C)=O)ccc1SC
2,159 to 161,O=C(NC(CO)C(=O)O)c1ccccc1 (stereo unspecified)
3,80 to 82,Cc1ccccc1-c1csc(N)n1
4,263 to 265,O=c1cc(-c2ccccc2)c2ccccc2[nH]1
5,78 to 80,COc1ccccc1C(N)c1nccn1C (stereo unspecified)
6,184 to 186,COc1nc(C(=O)O)cc2ccccc12
7,264 to 266,Nc1ncnc2ccccc12
8,115 to 117,Cc1cccc(-n2nnnc2S)c1C
9,96 to 98,NC(Cc1ccc(Cl)cc1)=NO
10,96 to 98,CCN(CC)C(=O)N1CCC(C(=O)O)CC1
11,121 to 123,C#CCSc1cccc(C(=O)O)c1
12,167 to 169,Nc1nc(-c2c[nH]c3ccccc23)cs1
13,43 to 45,CCCCS(N)(=O)=O
14,110 to 112,Nc1cccn(Cc2ccc(F)cc2)c1=O
15,170 to 172,CNC(=O)c1ccc(Cl)nn1
16,138 to 140,Nc1onc(-c2ccco2)c1-c1ccc2c(c1)OCO2
17,161 to 163,CCCCN(c1ccccc1)S(=O)(=O)c1cccc(C(=O)O)c1
18,103 to 106,COc1ccccc1NC(=O)c1ccc(NC(=O)CCl)cc1
19,159 to 161,NC(=O)Cn1cc(N)cn1
20,229 to 231,Nc1cc(-c2cccc(Br)c2)ncn1
21,311 to 313,CC(C)Cn1c(=O)[nH]c(=O)c2c(S)nc(CC3CC4CCC3C4)nc21 (stereo unspecified)
22,154 to 156,NC(=O)COc1ccc(O)cc1
23,79 to 81,CC(C)NS(=O)(=O)c1ccccc1CN
24,69 to 71,CC1Cc2ccc(Br)cc2C1=O (stereo unspecified)

row,melting point [°C],Structure (SMILES)
1,157 to 159,Oc1ccc(OCc2cccnc2)cc1
2,223 to 225,O=C(O)C1CCCN1C(=O)c1ccc2[nH]nnc2c1 (stereo unspecified)
3,81 to 83,Cc1cc(C)n(-c2ccccc2N)n1
4,123 to 125,CC(=O)Nc1cccc(I)c1
5,185 to 187,Cc1ccc2[nH]c3c(c2c1)CCCC3=O
6,105 to 107,Cc1ccccc1CNC(=O)CCl
7,272 to 274,O=c1[nH]c(=O)c2cc(S(=O)(=O)Cl)ccc2[nH]1
8,239 to 241,O=c1ccc(S(=O)(=O)N2CCCCC2)c[nH]1
9,53 to 55,CC(=O)c1sc(Cc2ccccc2)nc1C
10,139 to 141,COc1ccc(S(N)(=O)=O)cc1Br
11,237 to 239,Nc1ccc2c(c1)C(=O)NC2
12,95 to 98,O=C(O)CCSCc1cn2ccccc2n1
13,201 to 203,O=C(O)Cc1cnc2ccccc2c1
14,236 to 238,O=C(O)CC1Sc2ccc(C(F)(F)F)cc2NC1=O (stereo unspecified)
15,139 to 141,COc1cccc(CN2C(=O)NC(=O)C2=O)c1
16,198 to 200,CCOc1ccc(C(=O)O)cc1C
17,94 to 98,COc1ccc(NCC(=O)NN)cc1
18,122 to 124,O=C(O)CS(=O)(=O)c1ccc(Cl)cc1
19,239 to 241,O=C(O)c1cc(Cl)c2c(c1)OCO2

row,Structure (SMILES),melting point [°C]
1,O=C(O)c1cccc(S(=O)(=O)F)c1,152 to 154
2,Cn1nnnc1S(C)(=O)=O,64 to 66
3,O=C1CN(C(=O)CCl)CCN1,124 to 126
4,CCN1CCN(c2ccc(C(C)=O)cc2F)CC1,68 to 70
5,COc1cccc(-c2nn(Cc3ccccc3)cc2C(=O)O)c1,174 to 176
6,OC1CNCC1N1CCCC1 (stereo unspecified),82 to 84
7,CCN1CCN(c2ccc(Cl)cc2N)CC1,110 to 112

# Source: a melting point compilation (Tetko et al.)
